# Experimental data published in patent US20180235917A1, “COMPOSITIONS, METHODS AND KITS FOR TREATMENT OF DIABETES AND/OR […]” (NuSirt Sciences, Inc., priority 2014, published 2018).
# Like-named read-outs stand apart in the source and are kept apart here.
# How the values were obtained:
# C2C12 myotubes = assay: Glucose utilization (extracellular acidification response to glucose) in myotubes; assay type: cell-based, mouse
# [1] = system: LDL receptor knockout mice; assay: LDL receptor knockout mice on western diet: plasma lipids, atherosclerosis, macrophage infiltration (Example 7); assay type: in vivo, mouse
# Source text: LDL receptor knockout (LDLRKO) mice were obtained from Jackson Laboratories (Bar Harbor, Me.), and housed in groups under room temperature in a humidity-controlled environment with a regular light and dark cycle. The mice were provided free access to an atherogenic western diet (WD) containing 0.21% cholesterol (by weight) and 40% calories from fat and water for 4 weeks prior to treatment. For treatment, the mice were given (a) the WD diet alone, (b) WD and 24 g of leucine/kg diet, (c) WD and 24 g of leucine/kg diet and 50 mg nicotinic acid/kg diet, (d) WD and 24 g of leucine/kg diet and 250 mg nicotinic acid/kg diet, or (e) WD and 1000 mg nicotinic acid/kg diet; this is approximately equivalent to a low therapeutic dose of nicotinic acid in hypercholesterolemic humans (˜1,500 mg/day). The treatments were administered for eight weeks continuously.
# Blood samples of the mice in all groups were obtained from tails of the mice at following four and eight weeks of administration. The serum/plasma levels of triglyceride, total cholesterol and cholesterol esters were measured. Following treatment, food was removed for four hours and the animals were euthanized.
# Blood was collected into EDTA-coated tubes to analyze plasma lipid and cholesterol profiles. Plasma total cholesterol (TC, Pointe Scientific, Canton, Mich.), free cholesterol (FC, Wako, Richmond, Va.) and triglyceride (TG, Wako, Richmond, Va.) concentrations were measured using enzymatic assays according to manufacturer's instructions. Cholesterol ester (CE) was calculated as the difference between TC and FC.
# To assess atherosclerosis, the circulatory system was perfused following euthanasia with phosphate-buffered saline (PBS) before removing the heart and aorta. The upper one-third of the heart was dissected and embedded in Optimal Cutting Temperature Compound (Sakura Tissue-Tek, Torrance, Calif.), frozen, and stored at −80° C. Blocks were serially cut at 8 μm intervals and stained with hematoxylin and 0.5% Oil Red O (Sigma-Aldrich) to evaluate aortic sinus atherosclerotic intimal area. Atherosclerotic lesion area and Oil Red O positive area were quantified using Image-Pro Plus software (Media Cybernetics, Bethesda, Md.). Whole aorta (from sinotubular junction to iliac bifurcate) was dissected and fixed in 10% formalin, and the adventitia was cleaned. Aortas were opened along the longitudinal axis and pinned onto black silicon elastomer (Rubber-Cal, Santa Ana, Calif.) for the quantification of atherosclerotic lesion area. The percentage of total aortic surface covered with atherosclerotic lesions was quantified by Image-Pro Plus software (Media Cybernetics, Bethesda, Md.) and used to determine the total lesion area.
# To assess macrophage infiltration, Sections of aortic sinus were immuno-stained with rat monoclonal antibody against macrophage-specific CD68 (Clone FA11, 1:75, AbD Serotec, Raleigh, N.C.) followed by staining with alkaline phosphatase-conjugated mouse anti-rat (for CD68, 1:50) secondary antibodies (Jackson ImmunoResearch laboratories, West Grove, Pa.). Control slides contain no primary antibody. The CD68-positive areas were analyzed using Image-Pro Plus software (Media Cybernetics, Bethesda, Md.).
# Caenorhabditis elegans = assay: Lifespan of C. elegans (Example 10); assay type: in vivo; conditions: basal conditions; leucine 0.5 mM, nicotinic acid 10 nM
# Protocol: Eggs were hatched on a starved plate overnight. […] All treatments were added with the indicated concentrations to E. coli the agar plates. […] The worms were maintained at 20° C. throughout the duration of the study. Worms were transferred to new plates daily to eliminate progeny. […] The study was continued until the last animal was dead. Data were analyzed via Kaplan-Meier survival curves using Prism 6 (GraphPad Software) and statistical significance was determined by the Log-rank (Mantel-Cox) test.
# Sirt3 = molecular target: T1, Sirt3 (Mus musculus, UniProt Q8R104); assay: Sirt3 stimulation; assay type: cell-based; conditions: leucine 0.5 mM, HMB 5 μM, resveratrol 200 nM
# T1 construct: endogenous in cells; host or cells: 3T3-L1 adipocytes and/or C2C12 myotubes (inferred)
# T1 sequence (Q8R104 1-334): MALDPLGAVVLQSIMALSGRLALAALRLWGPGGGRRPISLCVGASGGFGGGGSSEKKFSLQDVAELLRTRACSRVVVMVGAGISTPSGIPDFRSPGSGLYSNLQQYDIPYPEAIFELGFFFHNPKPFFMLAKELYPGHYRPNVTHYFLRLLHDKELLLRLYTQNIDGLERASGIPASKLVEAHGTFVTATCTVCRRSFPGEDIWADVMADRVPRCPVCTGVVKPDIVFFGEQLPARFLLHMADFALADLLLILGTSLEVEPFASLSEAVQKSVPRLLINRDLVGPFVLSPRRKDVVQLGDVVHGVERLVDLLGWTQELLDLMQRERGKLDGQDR
# [2] = system: diet-induced obesity mice; assay: High fat diet-induced obese, insulin resistant mice: GTT, ITT, glucose, insulin, HOMAIR, muscle Western blot (Example 12); assay type: in vivo, C57/BL6 mice; conditions: HFD, no metformin; for glucose tolerance test (fasting and post-prandial hyperglycemia): Leu 24 g/kg diet with or without Res 12.5 mg/kg diet
# [3] = system: adipocytes (3T3-L1) and myotubes (C2C12); assay: Fatty acid oxidation and dose-response screening, cell type not stated; assay type: cell-based, mouse; conditions: for synergy with leucine or HMB in stimulating fatty acid oxidation: compound at its no-effect concentration with leucine 0.5 mM or HMB 5 μM
# diabetic db/db mice = conditions: for decrease in blood glucose over the 30 minute linear portion of the insulin tolerance test: insulin 0.75 U/kg
# [4] = high dose metformin 300 mg/kg bw
molecule,measurement,setting,value
"CC(C)C[C@H](N)C(=O)O [Leucine, leucine]",increase in insulin-stimulated glucose utilization,"C2C12 myotubes; C2C12 myotubes, 5 nM insulin, galegine 5 μM, leucine 0.5 mM",no effect
same,decrease in aortic macrophage infiltration (CD68 positive area),"[1]; eight weeks, doses as E77",significant independent effect
same,decrease in atherosclerotic lesion size (lesion and lipid area),"[1]; eight weeks, nicotinic acid 1,000 mg/kg diet, leucine 24 g/kg diet, or leucine + nicotinic acid 50 mg/kg diet, vs western diet alone",exerted an independent effect
same,decrease in plasma cholesterol esters,"[1]; four weeks, doses as E73",no independent effect
same,decrease in plasma total cholesterol,"[1]; four weeks, western diet + nicotinic acid 1,000 mg/kg diet, leucine 24 g/kg diet, or leucine + nicotinic acid 50 or 250 mg/kg diet",no independent effect
same,effect on lifespan,Caenorhabditis elegans,no independent effect
same,stimulation of Sirt3,Sirt3,no independent effects
same,glucose tolerance test (fasting and post-prandial hyperglycemia),[2],not significantly affected
same,glucose tolerance test (fasting and post-prandial hyperglycemia),[2]; listed as leucine,no independent effect
same,insulin tolerance test,[2]; Leu 24 g/kg diet,no independent effect
"CC(C)Cn1c(=O)n(C)c(=O)c2[nH]cnc21 [IBMX, 3-isobutyl-1-methylxanthine, reference compound]",synergy with leucine or HMB in stimulating fatty acid oxidation,[3],"weak but statistically significant synergy with HMB, but not leucine"
CN(C)C(=N)N=C(N)N [Metformin],reduction of plasma insulin,"diabetic db/db mice; db/db mice, 2 weeks, high dose metformin 300 mg/kg bw (1.5 g/kg diet)",27%
same,effect on plasma glucose,diabetic db/db mice; [4],no significant effect
same,effects on body composition,diabetic db/db mice; [4],no significant effects
same,plasma insulin,"diabetic db/db mice; high dose metformin 300 mg/kg bw, control 62",45 uU/mL
same,effects on any variable studied,diabetic db/db mice; low dose (150 mg/kg) and very low dose (50 mg/kg) metformin alone,no significant independent effects
same,decrease in blood glucose over the 30 minute linear portion of the insulin tolerance test,"diabetic db/db mice; low or very low dose of metformin, alone or as blend",minimal changes
same,effect on visceral fat mass,diabetic db/db mice; metformin at any dosage in the absence of HMB,not affected
same,decrease in blood glucose over the 30 minute linear portion of the insulin tolerance test,diabetic db/db mice; standard metformin dose (1.5 g/kg diet),~60 mg/dL
O[C@H]1[C@H](O)[C@@H](O)[C@H](O)[C@@H](O)[C@H]1O [Myo-inositol],synergy with leucine or HMB in stimulating fatty acid oxidation,[3],no synergy
OC[C@@H](O)[C@@H](O)[C@H](O)[C@@H](O)CO [Sorbitol],synergy with leucine or HMB in stimulating fatty acid oxidation,[3],no synergy
O=c1oc2c(O)c(O)cc3c(=O)oc4c(O)c(O)cc1c4c23 [Ellagic acid],activity in dose-response curves,[3]; even at high concentrations (50 μM),little activity
O=C(O)/C=C/c1ccc(O)c(O)c1 [Caffeic acid],concentrations that exert no effect (dose-response curves; sub-therapeutic dose),[3]; compound alone,≤ 1000 nM
"O=C(O[C@@H]1Cc2c(O)cc(O)cc2O[C@@H]1c1cc(O)c(O)c(O)c1)c1cc(O)c(O)c(O)c1 [EGCG, epigallocatechin gallate]",increase in glucose utilization in myotubes,"C2C12 myotubes; extracellular acidification response to glucose, concentrations as in E26",no independent effect
same,direct stimulation of fatty acid oxidation,[3]; compound alone,minimally active
same,synergy with leucine or HMB in stimulating fatty acid oxidation,[3],do not detect synergistic effects
"Cn1c(=O)c2[nH]cnc2n(C)c1=O [Theophylline, reference compound]",concentrations that exert no effect (dose-response curves; sub-therapeutic dose),[3]; compound alone,below 1 μM
OC[C@@H](O)[C@@H](O[C@H]1O[C@H](CO)[C@@H](O)[C@H](O)[C@H]1O)[C@H](O)[C@@H](O)CO [Maltitol],concentrations that exert no effect (dose-response curves; sub-therapeutic dose),[3]; compound alone,≤ 100 nM
same,synergy with leucine or HMB in stimulating fatty acid oxidation,[3],no synergy
Fucoxanthin,concentrations that exert no effect (dose-response curves; sub-therapeutic dose),[3]; compound alone,≤ 100 nM
